Assay results from PubChem BioAssay AID336 (DTP/NCI, 2004).
Several values for one entry are separate records, joined by “and”; a condition that tells them apart may be missing. Equal entries are not always repeated. Toxic doses and inconclusive results are not listed.

Test system: BDF1 mice, P388/VCR leukemia ip, median survival T/C
Assay: NCI In Vivo Anticancer Drug Screen. Data for tumor model P388 Leukemia resistant to Vincristine; NSC 67574 (intraperitoneal) in B6D2F1 (BDF1) mice
Settings: endpoint: median survival time, higher = longer survival
Description: The antitumor activity of compounds was measured in mice bearing transplantable tumors. Survival or tumor size were measured and the results are expressed as the measurement made in the treated group (T) divided by the measurement made in the vehicle treated control group (C). The tumor model used in this assay is P388 Leukemia resistant to Vincristine; NSC 67574 (intraperitoneal) in B6D2F1 (BDF1) mice

[1] = dose: 8.0 mg/kg/injection, schedule: Q01DX010 (ip), vehicle: saline
[2] = dose: 16.0 mg/kg/injection, schedule: Q01DX010 (ip), vehicle: saline
[3] = dose: 32.0 mg/kg/injection, schedule: Q01DX010 (ip), vehicle: saline
[4] = dose: 64.0 mg/kg/injection, schedule: Q01DX010 (ip), vehicle: saline
[5] = dose: 15.0 mg/kg/injection, schedule: Q01DX010 (ip), vehicle: saline
[6] = dose: 50.0 mg/kg/injection, schedule: Q01DX010 (ip), vehicle: saline

Which results are given for `COC(=O)C[C@](O)(CCCC(C)(C)O)C(=O)O[C@@H]1C(OC)=C[C@]23CCCN2CCc2cc4c(cc2[C@H]13)OCO4`?
T/C (dose: 0.72 mg/kg/injection, schedule: Q04DX003 (ip), vehicle: acid diluted with saline): 100 % of control; T/C (dose: 1.2 mg/kg/injection, schedule: Q04DX003 (ip), vehicle: acid diluted with saline): 100 % of control; T/C (dose: 2.0 mg/kg/injection, schedule: Q04DX003 (ip), vehicle: acid diluted with saline): 98 % of control; T/C (dose: 3.33 mg/kg/injection, schedule: Q04DX003 (ip), vehicle: acid diluted with saline): 97 % of control

How did the T/C [1] turn out when `Nc1nc(SCc2ccccc2)c2[nH]cnc2n1` was run?
The T/C was 100 % of control.

And the T/C [2]?
The T/C was 95 % of control and 100 % of control.

What about the T/C [3] of the same molecule?
Its T/C is 104 % of control and 109 % of control.

What about the T/C [4] of the same molecule?
The T/C was 95 % of control and 100 % of control.

`CO[C@@]12[C@H](COC(N)=O)C3=C(C(=O)C(C)=C(N)C3=O)N1C[C@@H]1N[C@@H]12` was tested. Which T/C (dose: 1.08 mg/kg/injection, schedule: Q04DX003 (ip), vehicle: saline) did it give?
Its T/C is 184 % of control.

And the T/C (dose: 1.8 mg/kg/injection, schedule: Q04DX003 (ip), vehicle: saline)?
Its T/C is 221 % of control.

What about the T/C (dose: 3.0 mg/kg/injection, schedule: Q04DX003 (ip), vehicle: saline) of the same molecule?
Its T/C is 184 % of control.

And the T/C (dose: 5.0 mg/kg/injection, schedule: Q04DX003 (ip), vehicle: saline)?
Its T/C is 124 % of control.

`O=C(Nc1ccc(C(=O)Nc2ccc(C3=NCCCN3)cc2)cc1)Nc1ccc(C2=NCCCN2)cc1` was tested. Which T/C (dose: 1.88 mg/kg/injection, schedule: Q01DX010 (ip), vehicle: saline) did it give?
The T/C was 116 % of control and 123 % of control.

What about the T/C (dose: 3.75 mg/kg/injection, schedule: Q01DX010 (ip), vehicle: saline) of the same molecule?
Its T/C is 116 % of control and 123 % of control.

And the T/C [5]?
The T/C was 123 % of control.

For `c1ccc(CNc2ncnc3[nH]ncc23)cc1`, which T/C [1] is on record?
The T/C was 92 % of control and 100 % of control.

What about the T/C [2] of the same molecule?
The T/C was 88 % of control and 96 % of control.

What about the T/C [3] of the same molecule?
Its T/C is 100 % of control.

And the T/C [4]?
Its T/C is 92 % of control.

With `CN(C)/N=N/c1nc[nH]c1C(N)=O` as the molecule, how does the T/C (dose: 25.0 mg/kg/injection, schedule: Q01DX010 (ip), vehicle: saline) read?
The T/C was 100 % of control and 116 % of control.

What about the T/C [6] of the same molecule?
The T/C was 107 % of control.

And the T/C (dose: 200.0 mg/kg/injection, schedule: Q01DX010 (ip), vehicle: saline)?
Its T/C is 107 % of control and 116 % of control.

How did the T/C [5] turn out when `N#CCSc1ncnc2nc[nH]c12` was run?
The T/C was 96 % of control and 100 % of control.

And the T/C (dose: 30.0 mg/kg/injection, schedule: Q01DX010 (ip), vehicle: saline)?
The T/C was 100 % of control and 103 % of control.

What about the T/C (dose: 60.0 mg/kg/injection, schedule: Q01DX010 (ip), vehicle: saline) of the same molecule?
The T/C was 108 % of control and 123 % of control.

How did the T/C (dose: 1.5 mg/kg/injection, schedule: Q01DX010 (ip), vehicle: saline) turn out when `N=C(N)c1ccc(Nc2ccc(C(=N)N)cc2)cc1` was run?
The T/C was 106 % of control.

And the T/C (dose: 3.0 mg/kg/injection, schedule: Q01DX010 (ip), vehicle: saline)?
Its T/C is 92 % of control and 106 % of control.

And the T/C (dose: 6.0 mg/kg/injection, schedule: Q01DX010 (ip), vehicle: saline)?
Its T/C is 89 % of control and 106 % of control.

And the T/C (dose: 12.0 mg/kg/injection, schedule: Q01DX010 (ip), vehicle: saline)?
The T/C was 92 % of control and 113 % of control.

How did the T/C [6] turn out when `CCN(CC)CCNc1ccc(C)c2sc3ccccc3c(=O)c12` was run?
Its T/C is 159 % of control and 172 % of control.

What about the T/C (dose: 100.0 mg/kg/injection, schedule: Q01DX010 (ip), vehicle: saline) of the same molecule?
The T/C was 100 % of control.

For `Cc1c2ccncc2c(C)c2c1[nH]c1ccccc12`, which T/C (dose: 13.0 mg/kg/injection, schedule: Q04DX003 (ip), vehicle: water) is on record?
The T/C was 150 % of control.

And the T/C (dose: 21.6 mg/kg/injection, schedule: Q04DX003 (ip), vehicle: water)?
The T/C was 210 % of control.

What about the T/C (dose: 24.0 mg/kg/injection, schedule: Q04DX003 (ip), vehicle: clinical formulation) of the same molecule?
Its T/C is 158 % of control.

And the T/C (dose: 36.0 mg/kg/injection, schedule: Q04DX003 (ip), vehicle: water)?
Its T/C is 253 % of control.

And the T/C (dose: 40.0 mg/kg/injection, schedule: Q04DX003 (ip), vehicle: clinical formulation)?
Its T/C is 203 % of control.

What about the T/C (dose: 60.0 mg/kg/injection, schedule: Q04DX003 (ip), vehicle: water) of the same molecule?
The T/C was 93 % of control.

And the T/C (dose: 66.7 mg/kg/injection, schedule: Q04DX003 (ip), vehicle: clinical formulation)?
Its T/C is 98 % of control.

With `CC(=O)c1cccc(NC2C(N)C(NC(=O)N(C)C)(C(C)O)C(C)(O)C2(O)COC(=O)c2c(C)cccc2O)c1` (stereo unspecified) as the molecule, how does the T/C (dose: 5.4 mg/kg/injection, schedule: Q04DX003 (ip), vehicle: alkali diluted with saline) read?
Its T/C is 98 % of control.

And the T/C (dose: 9.0 mg/kg/injection, schedule: Q04DX003 (ip), vehicle: alkali diluted with saline)?
The T/C was 98 % of control.

What about the T/C (dose: 15.0 mg/kg/injection, schedule: Q04DX003 (ip), vehicle: alkali diluted with saline) of the same molecule?
The T/C was 100 % of control.
